System: anti-6-keto-PGF1α antibody
Test: Cross-reactivity of related prostaglandins in the 6-keto-PGF1α aequorin bioluminescent immunoassay
Assay type: binding, sheep
Conditions: calculated at 50% B/B0; cross reactant used in the dose response curve instead of 6-keto-PGF1α; assay buffer
Experimental: Dose-Response Curve: A dose-response curve was generated for 6-keto-PGF1α by simultaneously incubating 100 μL of 6-keto-PGF1α antibody (1:10,000 dilution), 50 μL of different concentrations of the serially diluted analyte, 6-keto-PGF1α, and 50 μL of 1×10^−10 M coelenterazine bound 6-keto-PGF1α-aequorin conjugate (1:500) on microtiter plates coated with the secondary antibody. The plate was incubated in dark at room temperature for two hours with shaking at 300 rpm. The plate was washed three times with the wash buffer to remove any unbound components. The light intensity was measured as described before.
Presence of various prostaglandins other than 6-keto-PGF1α in the blood can cause non-specific binding with the 6-keto-PGF1α antibody and interfere with the detection of 6-keto-PGF1α, giving extremely high values of 6-keto-PGF1α. Therefore, it becomes important to confirm that the amount of 6-keto-PGF1α obtained from our assay is only due to 6-keto-PGF1α and no other prostaglandin. The cross-reactivities of other prostaglandins similar in structure to 6-keto-PGF1α were determined by preparing standard solutions of the compounds in the assay buffer ranging from 100,000 to 100 pg/mL and using them in this assay for 6-keto-PGF1α. The measured 6-keto-PGF1α concentration at 50% B/B0 was then calculated. The percent cross-reactivities were calculated by comparison of measured cross-reactant concentration and the actual concentration (known amount) of the cross-reactant in the sample (Table 1). It must be noted that the prostaglandins occur at different times in the arachidonic acid pathway and in different concentrations. […] The assay can, therefore, be used to measure 6-keto-PGF1α directly from plasma.
Cross-reactivities of related prostaglandins were measured by using varying concentrations of 50 μL of the cross reactant in the dose response curve instead of 6-keto-PGF1α. The percent cross-reactivities were calculated at 50% B/B0.

| Molecule | Percent cross-reactivity |
| --- | --- |
| CCCCC[C@H](O)/C=C/[C@@H]1[C@@H](CC(=O)CCC(=O)O)[C@@H](O)C[C@H]1O [2,3-dinor-6-keto-Prostaglandin F1, 2,3-dinor-6-keto-Prostaglandin F1α] | 10.1% |
| CCCCC[C@H](O)/C=C/[C@@H]1[C@@H](CCCCCCC(=O)O)[C@@H](O)C[C@H]1O [Prostaglandin F1] | 5.4% |
| CCCCC[C@H](O)/C=C/[C@H]1[C@H](O)CC(=O)[C@@H]1CCCCCCC(=O)O [Prostaglandin E1] | 6.75% |
| CCCCC[C@H](O)/C=C/[C@H]1C(=O)C[C@H](O)[C@@H]1C/C=C\CCCC(=O)O [Prostaglandin D2] | 7.75% |
| CCCCCC(=O)CCC1C(O)CC(O)C1CC(=O)CCCCC(=O)O (stereo not shown) [6,15-diketo-13,14-dihydro-Prostaglandin F1] | 1.83% |
| CCCCC[C@H](O)/C=C/[C@@H]1[C@@H](CC(=O)CCCCC(=O)O)[C@@H](O)C[C@H]1O [6-keto-Prostaglandin F1, 6-keto-Prostaglandin F1α] | 100% |
| CCCCC[C@H](O)/C=C/[C@@H]1[C@@H](C/C=C\CCCC(=O)O)[C@@H](O)C[C@H]1O [Prostaglandin F2] | 3.41% |
| CCCCCC(=O)CCC1C(O)CC(O)C1CCCCCCC(=O)O (stereo not shown) [13,14-dihydroxy-15-keto-Prostaglandin F1] | 0.45% |

System: anti-6-keto-PGF1α antibody
Test: Binder dilution study of 6-keto-PGF1α-aequorin conjugates
Assay type: binding, sheep
Conditions: 1×10^−10 M conjugate, 2 h room temperature, secondary antibody-coated plate; compared with 1:50 and 1:200 conjugates
Experimental: For the binder dilution studies aliquots of 100 μL of different concentrations of serially diluted anti-6-keto-PGF1α antibody, produced in sheep and 50 μL of 1×10^−10 M 6-keto-PGF1α-aequorin conjugate were placed simultaneously in microtiter plates pre-coated with a secondary antibody, donkey anti-sheep IgG. All dilutions were done in the assay buffer. The plates were incubated in dark at room temperature for 2 h with shaking at 300 rpm. Then the plates were washed with wash buffer (30 mM Tris-HCL buffer, pH 7.0, containing 2 mM EDTA, 0.15 M NaCl, and 0.1% Tween 20) three times to remove any unbound primary antibody or any unbound conjugate. Finally, the light intensity was measured as described earlier for the calibration plot.
The next step was to study the interaction between the anti-6-keto-PGF1α antibody and the conjugates. […] After washing the plate to remove any unbound antibody or conjugate the luminescence was measured. […] The effect of increased or decreased amounts of 6-keto-PGF1α antibody and/or conjugate on the dose-response curve was also evaluated. […] The dose-response curve obtained for 6-keto-PGF1α as depicted in FIG. 3, is sigmoidal in shape, with the luminescence intensity being lower at high concentrations of 6-keto-PGF1α and increasing as the concentration of 6-keto-PGF1α decreases. […]

| Molecule | binding to 6-keto-PGF1α antibody (binder-dilution curves) |
| --- | --- |
| 1:500 conjugate: NHS ester of 6-keto-PGF1α conjugated to cysteine-free mutant aequorin at 1:500 mole ratio aequorin:6-keto-PGF1α (conjugate) VKLTPDFDNPKWIGRHKHMFNFLDVNHNGRISLDEMVYKASDIVINNLGATPEQAKRHKDAVEAFFGGAGMKYGVETEWPEYIEGWKRLASEELKRYSKNQITLIRLWGDALFDIIDKDQNGAISLDEWKAYTKSDGIIQSSEDSEETFRVSDIDESGQLDVDEMTRQHLGFWYTMDPASEKLYGGAVP | maximum binding |

System: not listed separately
Test: 6-keto-PGF1α in plasma of PPH patients on intravenous prostacyclin, measured directly without extraction
Assay type: in vivo, human
Conditions: PPH patient plasma samples
Experimental: The analysis of 6-keto-PGF1α directly in plasma without extraction was performed by diluting the samples 1:200 times and using 50 μL in the dose-response curve along with 100 μL 6-keto-PGF1α of antibody and 50 μL of 6-keto-PGF1α-aequorin conjugate. The analysis was performed in the same manner as the dose-response curve described before. The amount of 6-keto-PGF1α in the samples was calculated from the standard dose response curve generated in plasma. The appropriate dilution factor was taken into consideration when calculating the amount of 6-keto-PGF1α present in each sample.
For in vivo analysis plasma samples were obtained from five patients with severe pulmonary arterial hypertension and 7 normal controls. […] All patient samples were analyzed in the same manner as the dose response curve in plasma. […] The amount of 6-keto-PGF1α in the samples was calculated as described before for sample analysis without extraction. […]
In order to obtain recovery data further analysis of the samples was performed. Two of the normal plasma samples and two patient plasma samples were first analyzed using the assay without extraction. […] The amount of 6-keto-PGF1α in the samples was calculated as described before for sample analysis without extraction. The samples were analyzed in triplicates. […]

| Molecule | levels of 6-keto-PGF1α in plasma versus prostacyclin dose |
| --- | --- |
| CCCCC[C@H](O)/C=C/[C@@H]1[C@H]2C/C(=C/CCCC(=O)O)O[C@H]2C[C@H]1O [Prostacyclin] | increased with increase in the prostacyclin dose |
